Tested on: TATA box-containing oligonucleotide (DNA, duplex) GAAGGGGGGCTATAAAAGGGGGTG/CACCCCCTTTTATAGCCCCCCTTC
Test: EMSA, inhibition of TBP binding to TATA box probe
Settings: LightShift chemiluminescent EMSA; probe preincubated with BBR; TBP from PC12 nuclear extract displaced; apparent

IC50: 0.3985 µmol
Structure (SMILES): COc1ccc2cc3[n+](cc2c1OC)CCc1cc2c(cc1-3)OCO2

Reference: publication PMC3161736 (2011)
